These results are taken from patent US9121067B2, “Predictive marker for EGFR inhibitor treatment” (Hoffmann-La Roche Inc., priority 2007, dated 2015).

Data set [1] relates to patients with advanced NSCLC following failure of at least one prior chemotherapy regimen. The data set is described as follows: open-label Phase II predictive marker study, response assessment by RECIST. The class given is in vivo, human. As to the method: Based on the experience from the BR.21 study, benefiting population was defined as either having objective response, or disease stabilization for 12 weeks. Clinical and microarray datasets were analyzed according to a pre-defined statistical plan.
This was an open-label, predictive marker identification Phase II study. The study was conducted in approximately 26 sites in about 12 countries. 264 patients with advanced NSCLC following failure of at least one prior chemotherapy regimen were enrolled over a 12 month period. […] Dose reductions were permitted based on tolerability to drug therapy. Clinical and laboratory parameters were assessed to evaluate disease control and toxicity. Treatment continued until disease progression, unacceptable toxicity or death. The study design is depicted in FIG. 1.
The RECIST (Uni-dimensional Tumour Measurement) criteria were used to evaluate response.
To be assigned a status of CR or PR, changes in tumour measurements must be confirmed by repeated assessments at least 4 weeks apart at any time during the treatment period.
In the case of SD, follow-up measurements must have met the SD criteria at least once after study entry at a minimum interval of 6 weeks.
In the case of maintained SD, follow-up measurements must have met the SD criteria at least once after study entry with maintenance duration of at least 12 weeks.

Data set [2] concerns NSCLC patients for whom standard therapy for advanced disease has failed. The conditions noted are these: single agent versus placebo; cited from earlier work.
The conditions of data set [3]: patients with cancer receiving 150 mg/day; 500 ng/ml is the average plasma concentration targeted for clinical efficacy; cited from earlier work.
[4] abbreviates: 75 patients with qRT-PCR results.
Setting [5] is: n = 102, benefit = objective response or disease stabilization for >=12 weeks.
[6] abbreviates: patients included in microarray analysis n = 102, oral 150 mg/day.

Structures are written as SMILES.

Turning to `C#Cc1cccc(Nc2ncnc3cc(OCCOC)c(OCCOC)cc23)c1` [Tarceva, erlotinib], in data set [1] (setting [4]), the “patients with PD” value is reported as 52%, the “patients with SD” value is recorded as 31% and the “patients with partial response (PR)” value is on record as 5%. For the same compound, in data set [1] (setting [5]), the “Clinical Benefit NO, n (%)” value is recorded as 81 (79.4%) and the “Clinical Benefit YES, n (%)” value is recorded as 21 (20.6%). Also, in data set [1] (setting [6]), the “Best Response PD, n (%)” value is 49 (48.0%); the “Best Response PR, n (%)” value is given as 6 (5.9%); the “Best Response SD, n (%)” value was 31 (30.4%). Further, in data set [2], the survival entry was “significantly prolongs and improves the survival”. In addition, the “drug levels in plasma” value in data set [3] is above 500 ng/mL.
